# Data: US8952055B2 (priority 2008, dated 2015)
# Read-outs that look alike come from different tables or passages of the source.
# What was measured:
# [1] = test system: influenza viruses (A/PR8/34/H1N1); conditions: for EC50: read-out: EC50 Antiviral effect (50% effective concentration), viral infection-preventing effect
# [2] = test system: canine kidney cultured cells (MDCK); conditions: read-out: CC50 Cytotoxicity (50% cytotoxic concentration); Table 3
# [3] = test system: influenza viruses (A/PR8/34/H1N1); conditions: for EC50: read-out: EC50 Antiviral effect (50% effective concentration), viral infectivity-inhibiting effect
# [4] = test system: influenza viruses (A/PR8/34/H1N1); experiment: Hemagglutination assay with chicken erythrocytes; assay type: cell-based, influenza virus; conditions: final concentrations 0 to 16 μmol/l, FIG. 3
# [5] = test system: influenza viruses (A/PR8/34/H1N1); experiment: microbe, parasite or virus in culture; conditions: H1N1|PR8, MDCK, read-out: EC50 Antiviral effect (50% effective concentration), viral infection-preventing effect
# [6] = test system: influenza viruses (A/PR8/34/H1N1); experiment: microbe, parasite or virus in culture; conditions: H1N1|PR8, MDCK, read-out: EC50 Antiviral effect (50% effective concentration), viral infectivity-inhibiting effect
SMILES,"SI Selectivity (Selective Index = CC50/EC50) ([1]; Table 3, viral infection-preventing effect)",EC50 [1] [µM],"EC50 ([1]; Table 5, Example 3, comparison with zanamivir and oseltamivir phosphate) [µM]",CC50 [2] [µM],"SI Selectivity (Selective Index = CC50/EC50) ([3]; Table 4, viral infectivity-inhibiting effect)","EC50 ([3]; Table 4, sample incubated with A/PR8/34/H1N1 for 30 minutes before application to MDCK cells) [µM]","EC50 ([3]; Table 6, Example 3, comparison with zanamivir and oseltamivir phosphate) [µM]",suppression of agglutination of the erythrocytes [4],EC50 [5] [µM],EC50 [6] [µM]
"O=C(O[C@@H]1Cc2c(O)cc(O)cc2O[C@@H]1c1cc(O)c(O)c(O)c1)c1cc(O)c(O)c(O)c1 [EGCG, epigallocatechin gallate]",2.91,94.6,94.7,276,703,0.391,0.391,not observed,,
CCOC(=O)C1=C[C@@H](OC(CC)CC)[C@H](NC(C)=O)[C@@H](N)C1 [oseltamivir phosphate],,,,,,,,,58.2,56.2
CC(=O)N[C@H]1[C@H]([C@H](O)[C@H](O)CO)OC(C(=O)O)=C[C@@H]1N=C(N)N [zanamivir],,,,,,,,,38,6.3
